From patent US9115201B2 (priority 2008, dated 2015)

Key:
Set-up in all cases: key: S, oseltamivir sensitive; R, oseltamivir resistant
[1] = test system: NA of A/Indonesia/05; format: biochemical, influenza H5N1 A/Indonesia/05
[2] = biological target: NA of A/Vietnam/1203/04 (Influenza A virus, UniProt Q6DPL2); format: biochemical, influenza H5N1 A/Vietnam/1203/04
[3] = test system: NA of A/Udorn/72; format: biochemical, influenza H3N2 A/Udorn/72
[4] = test system: NA of A/duck/Hong Kong/380.5/01; format: biochemical, influenza H5N1 A/duck/Hong Kong/380.5/01
[5] = test system: NA of A/Egypt/14725/NAMRU3/06; format: biochemical, influenza H5N1 A/Egypt/14725/NAMRU3/06
[6] = test system: NA of A/New Caledonia/20/99; format: biochemical, influenza H1N1 A/New Caledonia/20/99
[7] = test system: NA of A/Hong Kong/156/97; format: biochemical, influenza H5N1 A/Hong Kong/156/97
[8] = test system: NA of A/Egypt-2/14724/NAMRU3/06; format: biochemical, influenza H5N1 A/Egypt-2/14724/NAMRU3/06
[9] = test system: NA of A/Vietnam/HN/30408/05; format: biochemical, influenza H5N1 A/Vietnam/HN/30408/05

Sequence of NA of A/Vietnam/1203/04 (Q6DPL2 whole entry, looked up): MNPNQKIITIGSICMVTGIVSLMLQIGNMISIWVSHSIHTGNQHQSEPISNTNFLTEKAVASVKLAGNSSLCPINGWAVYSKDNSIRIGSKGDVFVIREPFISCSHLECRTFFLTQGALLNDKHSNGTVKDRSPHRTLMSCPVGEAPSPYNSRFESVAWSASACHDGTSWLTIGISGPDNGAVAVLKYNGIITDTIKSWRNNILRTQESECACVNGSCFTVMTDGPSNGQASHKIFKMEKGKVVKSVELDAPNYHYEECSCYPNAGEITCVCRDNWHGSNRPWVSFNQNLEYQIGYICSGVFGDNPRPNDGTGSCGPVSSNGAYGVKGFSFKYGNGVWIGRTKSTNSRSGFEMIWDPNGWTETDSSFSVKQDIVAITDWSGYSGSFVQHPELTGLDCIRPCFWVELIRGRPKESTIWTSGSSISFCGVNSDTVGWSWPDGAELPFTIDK

## CCOC(=O)C1=C[C@@H](OC(CC)CC)[C@H](NC(C)=O)[C@@H](N)C1 [Oseltamivir]
[1]
  Oseltamivir sensitivity of the virus: S
[2]
  Oseltamivir sensitivity of the virus: S
[3]
  Oseltamivir sensitivity of the virus: S^§
[4]
  Oseltamivir sensitivity of the virus: R
[5]
  Oseltamivir sensitivity of the virus: R
[6]
  Oseltamivir sensitivity of the virus: S
[7]
  Oseltamivir sensitivity of the virus: S
[8]
  Oseltamivir sensitivity of the virus: R
[9]
  Oseltamivir sensitivity of the virus: R
